The values that follow come from US6964959B2, “Use of a methylol-containing compound to treat tumors” (Carter Wallace, Inc., priority 1999, dated 2005).

Series [1] relates to MDR-transfected glioblastoma cells. The series can be described thus: Cytotoxicity in MDR-transfected glioblastoma cells. The note with it: transfected vs untransfected glioblastoma cells.
Description: The neoplastic cell lines used in the survey were standard tumor cell lines, e.g., PA1 human ovarian cell line, SKOV3 human ovarian cell line, HT29 human colon tumor cell line, DU145 human prostate tumor cell line, U251 human glioblastoma cell line, U251-MDR human glioblastoma cell line transfected with DNA encoding MDR, T98G human glioblastoma cell line, SP-1 human leukemia cell line, and Daudi human leukemia cell line.
Glioblastoma cells were transfected with a gene encoding multiple drug resistance (MDR).
The subject of the next series is human cancer cell lines. The series can be described thus: Cytotoxic activity of taurultam in human cancer cell lines. It is filed as cell-based. Here is the method: The cytotoxic activity of taurultam was evaluated in vitro using the same human cancer cell lines as described above. […] The data also indicate that the cytotoxic effect is directly proportionate to the number of methylol molecules liberated per molecule of methylol-containing compound

For `COc1cccc2c1C(=O)c1c(O)c3c(c(O)c1C2=O)C[C@@](O)(C(=O)CO)C[C@@H]3O[C@H]1C[C@H](N)[C@H](O)[C@H](C)O1` [adriamycin], the “resistance of MDR-transfected cells” value in series [1] is reported as 100-1000 times.
Regarding `O=S1(=O)CCNCN1` [taurultam], in the series with human cancer cell lines (cancer cells vs normal control cells), the “induction of apoptotic death” value is recorded as “induced apoptotic death of cancer cells but not normal control cells”. Moreover, in the series with human cancer cell lines (same human cancer cell lines as for taurolidine), the “cytotoxic activity relative to the activity observed with taurolidine” value is on record as “approximately 75%”.
